Assay results from patent US7932384B2, “Reverse-turn mimetics and method relating thereto” (Choongwae Pharma Corporation, priority 2001, dated 2011).
Values after ≈ are worked out from the molar mass of the structure shown.

experiment: physchem; settings: 37 °C, pH 1.2, simulated gastric fluid, thermodynamic from solid, Solubility JP1 (pH 1.2), 0 hr

Row | SMILES | solubility [µg/mL]
1 | CN1CC(=O)N2[C@@H](Cc3ccc(OP(=O)([O-])[O-])cc3)C(=O)N(Cc3cccc4cccnc34)C[C@@H]2N1C(=O)NCc1ccccc1.[Na+].[Na+] [Compound 9] | 2250
2 | C=CCN1CC(=O)N2[C@@H](Cc3ccc(OP(=O)([O-])[O-])cc3)C(=O)N(Cc3ccc(F)cc3F)C[C@@H]2N1C(=O)NCc1ccccc1.[Na+].[Na+] [Compound 8] | 671
3 | CN1CC(=O)N2[C@@H](Cc3ccc(OP(=O)(O)O)cc3)C(=O)N(Cc3cccc4cnn(C)c34)C[C@@H]2N1C(=O)NCc1ccccc1 [Compound 5] | 406 (≈ 627 µM)
4 | CN(C)c1cc(CN2C[C@H]3N(C(=O)CN(C)N3C(=O)NCc3ccccc3)[C@@H](Cc3ccc(OP(=O)([O-])[O-])cc3)C2=O)ccc1Cl.[Na+].[Na+] [Compound 11] | 2010
5 | CN(C)c1cc(F)ccc1CN1C[C@H]2N(C(=O)CN(C)N2C(=O)NCc2ccccc2)[C@@H](Cc2ccc(OP(=O)(O)O)cc2)C1=O [Compound 3] | 1880 (≈ 2870 µM)
6 | CN1CC(=O)N2[C@@H](Cc3ccc(OP(=O)([O-])[O-])cc3)C(=O)N(Cc3ccc(F)cc3F)C[C@@H]2N1C(=O)NCc1ccccc1.[Na+].[Na+] [Compound 4] | 554

same assay, conditions: 37 °C, pH 1.2, simulated gastric fluid, thermodynamic from solid, Solubility JP1 (pH 1.2), 2 hr

Row | SMILES | solubility [µg/mL]
7 | CN1CC(=O)N2[C@@H](Cc3ccc(OP(=O)([O-])[O-])cc3)C(=O)N(Cc3cccc4cccnc34)C[C@@H]2N1C(=O)NCc1ccccc1.[Na+].[Na+] [Compound 9] | 2280
8 | C=CCN1CC(=O)N2[C@@H](Cc3ccc(OP(=O)([O-])[O-])cc3)C(=O)N(Cc3ccc(F)cc3F)C[C@@H]2N1C(=O)NCc1ccccc1.[Na+].[Na+] [Compound 8] | 775
9 | CN1CC(=O)N2[C@@H](Cc3ccc(OP(=O)(O)O)cc3)C(=O)N(Cc3cccc4cnn(C)c34)C[C@@H]2N1C(=O)NCc1ccccc1 [Compound 5] | 532 (≈ 821 µM)
10 | CN(C)c1cc(CN2C[C@H]3N(C(=O)CN(C)N3C(=O)NCc3ccccc3)[C@@H](Cc3ccc(OP(=O)([O-])[O-])cc3)C2=O)ccc1Cl.[Na+].[Na+] [Compound 11] | 2000
11 | CN(C)c1cc(F)ccc1CN1C[C@H]2N(C(=O)CN(C)N2C(=O)NCc2ccccc2)[C@@H](Cc2ccc(OP(=O)(O)O)cc2)C1=O [Compound 3] | 1970 (≈ 3010 µM)
12 | CN1CC(=O)N2[C@@H](Cc3ccc(OP(=O)([O-])[O-])cc3)C(=O)N(Cc3ccc(F)cc3F)C[C@@H]2N1C(=O)NCc1ccccc1.[Na+].[Na+] [Compound 4] | 646

same assay, conditions: 37 °C, pH 1.2, simulated gastric fluid, thermodynamic from solid, Solubility JP1 (pH 1.2), 20 hr

Row | SMILES | solubility [µg/mL]
13 | CN1CC(=O)N2[C@@H](Cc3ccc(OP(=O)([O-])[O-])cc3)C(=O)N(Cc3cccc4cccnc34)C[C@@H]2N1C(=O)NCc1ccccc1.[Na+].[Na+] [Compound 9] | 2400
14 | C=CCN1CC(=O)N2[C@@H](Cc3ccc(OP(=O)([O-])[O-])cc3)C(=O)N(Cc3ccc(F)cc3F)C[C@@H]2N1C(=O)NCc1ccccc1.[Na+].[Na+] [Compound 8] | 921
15 | CN1CC(=O)N2[C@@H](Cc3ccc(OP(=O)(O)O)cc3)C(=O)N(Cc3cccc4cnn(C)c34)C[C@@H]2N1C(=O)NCc1ccccc1 [Compound 5] | 684 (≈ 1060 µM)
16 | CN(C)c1cc(CN2C[C@H]3N(C(=O)CN(C)N3C(=O)NCc3ccccc3)[C@@H](Cc3ccc(OP(=O)([O-])[O-])cc3)C2=O)ccc1Cl.[Na+].[Na+] [Compound 11] | 2000
17 | CN(C)c1cc(F)ccc1CN1C[C@H]2N(C(=O)CN(C)N2C(=O)NCc2ccccc2)[C@@H](Cc2ccc(OP(=O)(O)O)cc2)C1=O [Compound 3] | 2040 (≈ 3110 µM)
18 | CN1CC(=O)N2[C@@H](Cc3ccc(OP(=O)([O-])[O-])cc3)C(=O)N(Cc3ccc(F)cc3F)C[C@@H]2N1C(=O)NCc1ccccc1.[Na+].[Na+] [Compound 4] | 756

same assay, conditions: 37 °C, pH 6.8, fassgf or other biorelevant, thermodynamic from solid, Solubility JP2 (pH 6.8), 0 hr

Row | SMILES | solubility [µg/mL]
19 | CN1CC(=O)N2[C@@H](Cc3ccc(OP(=O)([O-])[O-])cc3)C(=O)N(Cc3cccc4cccnc34)C[C@@H]2N1C(=O)NCc1ccccc1.[Na+].[Na+] [Compound 9] | 2320
20 | C=CCN1CC(=O)N2[C@@H](Cc3ccc(OP(=O)([O-])[O-])cc3)C(=O)N(Cc3ccc(F)cc3F)C[C@@H]2N1C(=O)NCc1ccccc1.[Na+].[Na+] [Compound 8] | 2300
21 | CN1CC(=O)N2[C@@H](Cc3ccc(OP(=O)(O)O)cc3)C(=O)N(Cc3cccc4cnn(C)c34)C[C@@H]2N1C(=O)NCc1ccccc1 [Compound 5] | 1760 (≈ 2720 µM)
22 | CN(C)c1cc(CN2C[C@H]3N(C(=O)CN(C)N3C(=O)NCc3ccccc3)[C@@H](Cc3ccc(OP(=O)([O-])[O-])cc3)C2=O)ccc1Cl.[Na+].[Na+] [Compound 11] | 1640
23 | CN(C)c1cc(F)ccc1CN1C[C@H]2N(C(=O)CN(C)N2C(=O)NCc2ccccc2)[C@@H](Cc2ccc(OP(=O)(O)O)cc2)C1=O [Compound 3] | 1320 (≈ 2020 µM)
24 | CN1CC(=O)N2[C@@H](Cc3ccc(OP(=O)([O-])[O-])cc3)C(=O)N(Cc3ccc(F)cc3F)C[C@@H]2N1C(=O)NCc1ccccc1.[Na+].[Na+] [Compound 4] | 1980

same assay, conditions: 37 °C, pH 6.8, fassgf or other biorelevant, thermodynamic from solid, Solubility JP2 (pH 6.8), 2 hr

Row | SMILES | solubility [µg/mL]
25 | CN1CC(=O)N2[C@@H](Cc3ccc(OP(=O)([O-])[O-])cc3)C(=O)N(Cc3cccc4cccnc34)C[C@@H]2N1C(=O)NCc1ccccc1.[Na+].[Na+] [Compound 9] | 2350
26 | C=CCN1CC(=O)N2[C@@H](Cc3ccc(OP(=O)([O-])[O-])cc3)C(=O)N(Cc3ccc(F)cc3F)C[C@@H]2N1C(=O)NCc1ccccc1.[Na+].[Na+] [Compound 8] | 2320
27 | CN1CC(=O)N2[C@@H](Cc3ccc(OP(=O)(O)O)cc3)C(=O)N(Cc3cccc4cnn(C)c34)C[C@@H]2N1C(=O)NCc1ccccc1 [Compound 5] | 1780 (≈ 2750 µM)
28 | CN(C)c1cc(CN2C[C@H]3N(C(=O)CN(C)N3C(=O)NCc3ccccc3)[C@@H](Cc3ccc(OP(=O)([O-])[O-])cc3)C2=O)ccc1Cl.[Na+].[Na+] [Compound 11] | 1650
29 | CN(C)c1cc(F)ccc1CN1C[C@H]2N(C(=O)CN(C)N2C(=O)NCc2ccccc2)[C@@H](Cc2ccc(OP(=O)(O)O)cc2)C1=O [Compound 3] | 1900 (≈ 2910 µM)
30 | CN1CC(=O)N2[C@@H](Cc3ccc(OP(=O)([O-])[O-])cc3)C(=O)N(Cc3ccc(F)cc3F)C[C@@H]2N1C(=O)NCc1ccccc1.[Na+].[Na+] [Compound 4] | 2010

same assay, conditions: 37 °C, pH 6.8, fassgf or other biorelevant, thermodynamic from solid, Solubility JP2 (pH 6.8), 20 hr

Row | SMILES | solubility [µg/mL]
31 | CN1CC(=O)N2[C@@H](Cc3ccc(OP(=O)([O-])[O-])cc3)C(=O)N(Cc3cccc4cccnc34)C[C@@H]2N1C(=O)NCc1ccccc1.[Na+].[Na+] [Compound 9] | 2420
32 | C=CCN1CC(=O)N2[C@@H](Cc3ccc(OP(=O)([O-])[O-])cc3)C(=O)N(Cc3ccc(F)cc3F)C[C@@H]2N1C(=O)NCc1ccccc1.[Na+].[Na+] [Compound 8] | 2270
33 | CN1CC(=O)N2[C@@H](Cc3ccc(OP(=O)(O)O)cc3)C(=O)N(Cc3cccc4cnn(C)c34)C[C@@H]2N1C(=O)NCc1ccccc1 [Compound 5] | 1760 (≈ 2710 µM)
34 | CN(C)c1cc(CN2C[C@H]3N(C(=O)CN(C)N3C(=O)NCc3ccccc3)[C@@H](Cc3ccc(OP(=O)([O-])[O-])cc3)C2=O)ccc1Cl.[Na+].[Na+] [Compound 11] | 1650
35 | CN(C)c1cc(F)ccc1CN1C[C@H]2N(C(=O)CN(C)N2C(=O)NCc2ccccc2)[C@@H](Cc2ccc(OP(=O)(O)O)cc2)C1=O [Compound 3] | 2000 (≈ 3060 µM)
36 | CN1CC(=O)N2[C@@H](Cc3ccc(OP(=O)([O-])[O-])cc3)C(=O)N(Cc3ccc(F)cc3F)C[C@@H]2N1C(=O)NCc1ccccc1.[Na+].[Na+] [Compound 4] | 2030
